What was measured:
[1] = target: T1, ANXA5 (Homo sapiens, UniProt P08758); test: XL177A-DTB chemoproteomic profiling with XL177A competition, ANXA5; assay type: binding; details: ANXA5 reporter ion intensity
T1 construct: endogenous in cells; host or cells: HEK 293AD lysate
T1 sequence (P08758 1-320): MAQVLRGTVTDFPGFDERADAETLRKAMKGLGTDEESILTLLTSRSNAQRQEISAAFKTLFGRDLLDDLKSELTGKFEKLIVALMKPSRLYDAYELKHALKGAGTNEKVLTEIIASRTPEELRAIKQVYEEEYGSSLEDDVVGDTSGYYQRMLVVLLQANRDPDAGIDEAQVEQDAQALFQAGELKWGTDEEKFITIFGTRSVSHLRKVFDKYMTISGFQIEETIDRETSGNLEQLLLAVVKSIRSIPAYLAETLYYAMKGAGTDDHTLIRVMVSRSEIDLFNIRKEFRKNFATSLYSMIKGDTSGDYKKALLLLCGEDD
Method: HEK 293AD cells were lysed as described above, and the lysate was cleared by centrifugation. Samples were diluted to 10 mg/mL, and 200 μL lysate (2 mg protein total) was incubated with the indicated concentrations of XL177A for 4 hours at RT, then 2 μM of WH114A for 4 additional hours. SDS was added to a final concentration of 1.2% (27.2 μL of a 10% stock), and denatured by heating to 80 °C for 5 minutes. After cooling to RT, 1125 μL 1X PBS was added to dilute the final SDS concentration to 0.2%. 50 μL streptavidin agarose slurry was added to each sample, followed by incubation at RT for 3 hours. After streptavidin enrichment, samples were washed vigorously (2×0.2% SDS, 3x PBS, 3x ddH2O). After the final wash, all supernatant was removed using a flat-bottom tip, and the resin was flash frozen and stored at −80 °C until workup for TMT labeling.
To remove rapigest, recovered supernatants were acidified with 10% TFA, incubated at 37 °C for 45 minutes, and centrifuged at 14,000 rpm for 15 minutes at 4 °C. Peptides were then desalted by C18, and dried by vacuum centrifugation. Dried peptides were reconstituted in 50 mM pH8.0 TEAB and labeled with TMT reagent at RT for 1 hour. TMT reactions were pooled and treated with hydroxylamine according to the manufacturer’s instructions. Peptide mixtures were then dried, reconstituted in 50 mM ammonium bicarbonate and desalted by SP3[53]. Eluted peptides were then analyzed by nanoflow LC-MS/MS as described[64] with a NanoAcquity UPLC system (Waters, Milford, MA) interfaced to a QExactive HF mass spectrometer (Thermofisher Scientific, San Jose, CA). TMT labeled peptides were injected onto a precolumn (4 cm POROS 10R2, Applied Biosystems, Framingham, MA), resolved on an analytical column (30 µm I.D. × 50 cm packed with 5 µm Monitor C18) and introduced to the mass spectrometer by ESI (spray voltage = 3.5 kV, flow rate ~30 nL/min). The mass spectrometer was operated in data dependent mode such that the 15 most abundant ions in each MS scan (m/z 300–2000, 120 K resolution, target = 3E6, lock mass for 445.120025 enabled) were subjected to MS/MS (m/z 100–2000, 30 K resolution, target = 1E5, max fill time = 100 ms). Dynamic exclusion was selected with a repeat count of 1 and an exclusion time of 30 seconds. MS/MS data was extracted to.mgf using mulitplierz scripts[54],[55] and searched against a forward-reverse human NCBI refseq database using Mascot version 2.6. Search parameters specified fixed carbamidomethylation of cysteine, fixed N-terminal and lysine TMT labelling, and variable oxidation (methionine). Additional multiplierz scripts were used to filter results to 1% FDR and derive protein-level aggregate reporter ion intensities using peptides mapping uniquely into the genome.

[2] = target: T2, USP7-Q351S (Homo sapiens, UniProt Q93009, Q351S); test: Ub-AMC enzymatic assay, USP7-Q351S mutant; assay type: biochemical; details: 6-hr pre-incubation
T2 construct: made in house
T2 sequence (Q93009 whole entry Q351S): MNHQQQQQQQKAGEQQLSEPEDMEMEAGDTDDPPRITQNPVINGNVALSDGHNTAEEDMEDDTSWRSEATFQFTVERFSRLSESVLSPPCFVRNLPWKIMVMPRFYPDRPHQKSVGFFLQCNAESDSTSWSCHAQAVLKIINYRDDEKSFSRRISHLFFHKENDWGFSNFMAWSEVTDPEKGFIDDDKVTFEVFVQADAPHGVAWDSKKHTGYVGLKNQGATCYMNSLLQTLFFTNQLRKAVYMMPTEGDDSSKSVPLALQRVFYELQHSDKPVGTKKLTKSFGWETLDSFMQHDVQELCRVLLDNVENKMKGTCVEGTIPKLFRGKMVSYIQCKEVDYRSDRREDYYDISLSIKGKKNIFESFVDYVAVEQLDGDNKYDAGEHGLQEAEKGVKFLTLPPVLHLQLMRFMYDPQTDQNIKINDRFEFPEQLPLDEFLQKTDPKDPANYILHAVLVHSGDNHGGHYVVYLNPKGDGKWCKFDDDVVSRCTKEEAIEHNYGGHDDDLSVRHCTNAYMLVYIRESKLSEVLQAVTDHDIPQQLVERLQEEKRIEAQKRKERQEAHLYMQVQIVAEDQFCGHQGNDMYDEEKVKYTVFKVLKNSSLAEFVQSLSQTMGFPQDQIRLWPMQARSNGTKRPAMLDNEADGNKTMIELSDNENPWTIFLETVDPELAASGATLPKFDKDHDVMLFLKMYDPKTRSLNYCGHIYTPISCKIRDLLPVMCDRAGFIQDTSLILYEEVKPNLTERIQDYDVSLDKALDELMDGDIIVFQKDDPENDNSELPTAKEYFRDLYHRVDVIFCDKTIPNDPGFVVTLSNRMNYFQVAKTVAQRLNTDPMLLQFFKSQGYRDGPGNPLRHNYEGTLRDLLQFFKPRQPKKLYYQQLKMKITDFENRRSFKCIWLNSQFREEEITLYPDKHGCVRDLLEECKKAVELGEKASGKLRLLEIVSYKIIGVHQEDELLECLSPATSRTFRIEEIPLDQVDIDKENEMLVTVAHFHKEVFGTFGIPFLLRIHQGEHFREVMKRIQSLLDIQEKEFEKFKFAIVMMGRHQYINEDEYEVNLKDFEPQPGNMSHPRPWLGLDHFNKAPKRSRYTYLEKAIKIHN
Method: Full length USP7 was tested for its activity in Ubiquitin-AMC assay in presence or absence of inhibitors. USP7 (5 nM) was pre-incubated for 6 hours at room temperature with different concentrations of inhibitors or DMSO as a control in 50 mM HEPES pH 7.5, 0.5 mM EDTA, 11 uM ovalbumin, and 5 mM DTT. Ubiquitin-AMC (Boston Biochem) was then added to a final concentration of 500 nM. The initial rate of the reaction was measured by collecting fluorescence data at one minute intervals over 30-minute period using a Clariostar fluorescence plate reader at excitation and emission wavelength of 345 and 445 nm respectively. The calculated initial rate values were plotted against inhibitor concentrations to determine IC50s. All the experimental data were plotted using Prism GraphPad. All assays for each compound were performed at least twice for each compound.

[3] = system: panel of 41 recombinant DUBs; test: In vitro DUB profiling (Ubiquigent, Ub-Rho), other DUBs of the panel; assay type: biochemical; details: 1 µM, 15-minute pre-treatment
Method: Compounds were screened using the Ubiquigent Drug Profiler SPT system (www.ubiquigent.com/drug-discovery-services/dubprofiler/). Each of 41 purified DUBs was incubated with compound for 15 minutes, then ubiquitin rhodamine 110 (Ub-Rho) was added and percent inhibition determined based on fluorescence relative to a DMSO control.

[4] = system: MCF7 cells; test: Cell cycle analysis by propidium iodide staining; assay type: cell-based; details: 1 μM, 24 hours
Method: For propidium iodide (PI) staining, treated cells (~1 million per condition) were washed with cold PBS, then fixed in 80% ethanol overnight at −20 °C. After fixing, cells were pelleted, washed with PBS, and reconstituted in 500 μL FxCycle PI / RNAse A staining solution (Thermo Fisher). Cells were stored overnight at 4 °C and analyzed using a BD Fortessa flow cytometer.

[5] = XL177A-DTB pulldown, HEK293AD lysate pre-treated 100nM XL177A
[6] = XL177A-DTB pulldown, HEK293AD lysate pre-treated 1uM XL177A
[7] = XL177A-DTB pulldown, HEK293AD lysate pre-treated 10uM XL177A
[8] = average of Run 1 and Run 2, 100nM XL177A
[9] = average of Run 1 and Run 2, 1uM XL177A
[10] = average of Run 1 and Run 2, 10uM XL177A

- Run 1 100nM 1 [1, 5]: 178152
- Run 1 100nM 2 [1, 5]: 165955
- Run 1 100nM 3 [1, 5]: 128000
- Run 2 100nM 1 [1, 5]: 93111
- Run 2 100nM 2 [1, 5]: 89444
- Run 2 100nM 3 [1, 5]: 79751
- Run 1 1uM 1 [1, 6]: 144604
- Run 1 1uM 2 [1, 6]: 674321
- Run 1 1uM 3 [1, 6]: 223998
- Run 2 1uM 1 [1, 6]: 92176
- Run 2 1uM 2 [1, 6]: 333280
- Run 2 1uM 3 [1, 6]: 123099
- Run 1 10uM 1 [1, 7]: 147137
- Run 1 10uM 2 [1, 7]: 166473
- Run 2 10uM 1 [1, 7]: 88314
- Run 2 10uM 2 [1, 7]: 102591
- AVE 100nM 1 [1, 8]: 135632
- AVE 100nM 2 [1, 8]: 127700
- AVE 100nM 3 [1, 8]: 103876
- AVE 1uM 1 [1, 9]: 118390
- AVE 1uM 2 [1, 9]: 503800
- AVE 1uM 3 [1, 9]: 173548
- AVE 10uM 1 [1, 10]: 117726
- AVE 10uM 2 [1, 10]: 134532
- IC50 [2]: 189 nM
SMILES: CN1CCN(CCC(=O)Nc2ccc3c(=O)n(CC4(O)CCN(C(=O)[C@@H](CCCNC(=O)c5ccc6c(Cl)c7c(nc6c5)CCCC7)Cc5ccccc5)CC4)cnc3c2)CC1 [XL177A]
- activity against any other DUBs [3]: did not exhibit significant activity
- cell cycle effect [4]: complete G1 arrest
